Assay results published in patent US20150374658A1, “COMPOSITION COMPRISING LICORICIDINE” (ANALYTICON DISCOVERY GMBH, priority 2012, published 2015).
≈ marks a conversion by molar mass, not a printed value.

What was measured:
[1] = system: Corynebacterium xerosis DSM 20743 (ATCC 373); assay: Classic assay, biofilm formation (crystal violet, CV580); type: cell-based; conditions: read-out: IC50, biofilm growth mode
Procedure: (§1) Corynebaterium xerosis is usually characterized as a rod-like gram positive bacterium. Under laboratory conditions (96 well plates) it takes ˜24 hours until Corynebaterium xerosis reaches stationary growth phase. Within this period planktonic growth can be quantified by spectroscopic means and a biofilm can be detected and quantified by standard crystal violet incorporation (c.f. O'Toole & Kolter, 1998, Mol. Microbiol. 28(3), 449-461). Planktonic growth denotes growth of non-adherent cells in the bulk liquid whereas biofilm denotes growth of cells adherent to solid surfaces.
(§2) Routine susceptibility testing of C. xerosis in high throughput format was done by simultaneous addition of test compounds and inoculum (“classic assay”). Growth of untreated (i.e. no extracts or test compounds added, control) planktonic cells ceased 7 hours after inoculation, and decreased by 13% at 24 hours. Biofilm development reached maximum 10 hours upon inoculation and kept constant for the rest of the test period (30 hours).
(§3) Formation of planktonic and biofilm cells was determined 18-24 hours after inoculation, thus at a time when some planktonic cells lysed. […]
(§4) Effects of test compounds were evaluated by comparison of turbidity (optical density, OD580) and crystal violet staining (biofilm; CV580) of treated and untreated samples (control; 100%). […]

[2] = system: Corynebacterium xerosis DSM 20743 (ATCC 373); assay: Classic assay, planktonic growth (OD580); type: cell-based; conditions: read-out: IC50, planktonic growth
Procedure: as §1, §2, §3, §4

[3] = Stability assessment of licoricidine using different stabilizers (HPLC peak area, storage at 40° C.); type: physicochemical; conditions: HPLC UV 225 nm
Procedure: Five times 5 mg ethanolic extract (0.1%) were dissolved in 1.5 ml ethanol and 3.5 ml buffer pH 7. • To the first batch 20 mg citric acid (0.4%) were added as a stabilizer and the resulting batch was stored at 40° C. • To the second batch 50 mg citric acid (1.0%) were added as a stabilizer and the resulting batch was stored at 40° C. • To the third batch 20 mg ascorbic acid (0.4%) were added as a stabilizer and the resulting batch was stored at 40° C. • To the fourth batch 50 mg ascorbic acid (1.0%) were added as a stabilizer and the resulting batch was stored at 40° C. • The fifth batch was stored as a reference at −18° C.
30 mg lipophilic extract were dissolved in 30 ml safflower oil at 80° C.
The obtained solution was split into three batches: • To the first batch 10 mg/ml ascorbic acid palmitate were added as a stabilizer and the resulting batch was stored at 40° C. • To the second batch 10 mg/ml BHA (Butylhydroxyanisol) were added as a stabilizer and the resulting batch was stored at 40° C. • The third batch was stored as a reference at −18° C.
Dissolve 120 mg lipophilic extract in 30 ml safflower oil at 80° C.
Split in tree (3) batches: • Add to the first batch 10 mg/ml ascorbic acid palmitate as a stabilizer and store at 40° C. • Add to the second batch 10 mg/ml BHA (Butylhydroxyanisol) as a stabilizer and store at 40° C. • Freeze the third batch as a reference at −18° C.
• Add to 10 ml maceration oil 100 mg ascorbic acid palmitate as a stabilizer and store at 40° C. • Add to 10 ml maceration oil 100 mg BHA (Butylhydroxyanisol) as a stabilizer and store at 40° C. • Freeze 10 ml maceration oil as a reference at −18° C.
0.5 ml of the respective oil prepared according to any one of examples 5.1 to 5.4 was extracted with 3 ml methanole/water (9:1), centrifugated and the supernatant was used for the analysis.
• Column: Kromasil C18, 125×4 mm with pre-column • Detection: UV (225 nm) • Mobile Phase: A: water with 5 mM ammoniumformiate and 0.1% formic acid; • B: acetonitrile/methanol=1:1, 5 mM ammoniumformiate and 0.1% formic acid • Gradient: from 60% B to 80% B in 30 min • Flow: 0.8 ml/min • The retention time of the reference peak (licoricidine) is 16.9 (±0.2) min.

decrease of the peak area of licoricidine ([3]; aqueous solution (buffer pH 7 in addition of 30% ethanol) with 0.1% ethanolic extract and 1% citric acid, eight (8) weeks storage at 40° C.) | decrease of the peak area of licoricidine ([3]; maceration oil with addition of 1% BHA, twelve (12) weeks storage at 40° C.) | decrease of the peak area of licoricidine ([3]; safflower oil with 0.1% lipophilic extract, 1% BHA, twelve (12) weeks storage at 40° C.) | decrease of the peak area of licoricidine ([3]; safflower oil with 0.4% lipophilic extract, 1% BHA, twelve (12) weeks storage at 40° C.) | IC50 ([1]; serial dilutions, classic assay) | SMILES | IC50 [1] | IC50 [2]
– | – | – | – | – | Oc1cc(Cl)ccc1Oc1ccc(Cl)cc1Cl [Triclosan, 5-chloro-2-(2,4-dichlorophenoxy)-phenol, reference compound] | 0.6 µg/mL (≈ 2.07 µM) | 1.7 µg/mL (≈ 5.87 µM)
lower than 20% | lower than 20% | lower than 20% | lower than 20% | 4.3 µg/mL (≈ 10.1 µM) | COc1c(CC=C(C)C)c(O)cc2c1C[C@H](c1ccc(O)c(CC=C(C)C)c1O)CO2 [licoricidine] | – | –
